# Measurements taken from patent US20240189263A1, “DERIVATIZED C60 MOLECULES AND METHODS AND MATERIALS FOR USING DERIVATIZED C60 MOLECULES TO REDUCE RADIATION INJURY” (Mayo Foundation for Medical Education and Research, priority 2021, published 2024).
# Experiments:
# [1] = Dynamic light scattering analysis of C60-ser aggregates; format: physicochemical; settings: for Predominant aggregate sizes: in PBS
# Experimental: Dynamic light scattering (DLS) was used to observe the aggregation process of C60-ser. Dynamic light scattering heatmaps were created by combining multiple normalized particle number weighted distribution (PNWD) plots. The PNWD plots compared the log of the relative scattering intensity versus particle size, at angles of 173°. The refractive index was assumed to be n=1.34, the absorption constant to be k=0.001, and the solution viscosity to be that of water, corrected for temperature (η=0.888 mPa s). Plots were collected with a 0.2° C. interval. Each temperature interval was held constant for more than 45 minutes before performing the next measurement, to ensure the presence of an aggregation equilibrium.
# HepG2 cells [2] = assay: DNA damage, γH2AX foci immunofluorescence, HepG2; format: cell-based
# Experimental: To test the ability of C60-ser to protect against radiation injury, the level of DNA damage in response to radiation was analyzed by measuring γH2AX. The H2AX protein becomes phosphorylated into γH2AX as a result of DNA double strand breaks. This allows for the visualization and quantification of double strand break foci through immunofluorescence analysis. Cells were plated on 8 chamber slides and incubated overnight before C60-ser treatment. Three sets of slides per cell line (to be irradiated with 0, 0.5, and 1 Gy) were prepared, with the top 4 rows used as a control and the bottom 4 rows incubated with 100 μM C60-ser. Cells were incubated with C60-ser for 2 hours before irradiation with a clinical Proteus One proton machine (Ion Beam Applications, Louvain-la-Neuve, Belgium). A 230 MeV mono-energetic unmodulated broad beam of large field size that encompassed all slides containing the cells was used to deliver the 0.5 and 1 Gy doses. White solid water slabs (IBA Dosimetry, Germany) provided the necessary phantom material to place the cells at the desired 8 cm depth with an LET of approximately 1.7 keV/μm. After irradiation, cells were incubated at 37° C. with 5% CO2 for 30 minutes before washing and fixing the cells with 1% formaldehyde. The cells were permeabilized with 1% NP-40 and incubated with 5% BSA to block unspecific antibody bonding. The cells were then incubated with γH2AX primary antibody followed by a secondary antibody. Mounting media containing DAPI was used before applying cover slips and sealing the samples. Cells were imaged on an Olympus IX71 trinocular inverted fluorescence phase contrast microscope with a 40× objective. The resulting images were analyzed by ImageJ, and the foci were counted.
# HepG2 cells [3] = assay: Classic clonogenics survival assay of irradiated cells, HepG2; format: cell-based
# Experimental: A classic clonogenics assay was performed to further test the ability of C60-ser to protect against radiation damage. After irradiation, a fraction of the cells will undergo radiation-induced death, whereas other cells remain metabolically active and are able to undergo a few cycles of mitosis before meeting their endpoint. Since many cells remain metabolically activity, classic toxicity measurements such as an MTT measurement are not able to catch the full effects of radiation damage. In contrast, a classic clonogenics assay, which plates a known number of cells and tracks development of colonies, is able to track the number of cells that maintain their clonogenicity. With increasing radiation doses, the fraction of cells that maintain clonogenicity decrease. Therefore, a successful radioprotectant is able to increase the number of surviving colonies compared to the control at the same radiation doses.
# N2A, NIH3T3, and HepG2 cells were plated in 35 mm dishes and treated with 100 μM C60-ser for 2 hours prior to washing with PBS and irradiation at 0, 2, 4, and 6 Gy with a 230 MeV proton beam. Following radiation, a known number of cells were re-plated in six well plates and allowed to grow in culture for 8-14 days to allow for colony formation. To account for cell death with higher radiation doses, a larger number of cells were plated with increasing doses received. […]
# N2A cells = assay: Seahorse mitochondrial respiration (oxygen consumption rate), N2A; format: cell-based; settings: pretreated 2 hours before 1 Gy 230 MeV proton
# Experimental: (§1) The oxygen consumption rates were assessed in N2A, HUVEC, NIH3T3, and HepG2 cell lines with a Seahorse XFe96 (Agilent Technologies, Santa Clara, CA, USA). Cells were treated with 0 and 1 Gy of 230 MeV proton irradiation. The control plates were run at about the same time post plating. Each cell line was optimized prior to these experiments, and data was presented normalized to cell number plated. The standard mitochondrial stress test was performed using serial injections of oligomycin (1.5 μM), carbonyl cyanide p-(trifluoromethoxy)phenylhydrazone (FCCP, 1 μM), and rotenone/antimycin A mixture (0.5 μM). After injection of oligomycin, which inhibits ATP synthase (complex V), there was a drop in electron flow through the electron transport chain (ETC) and a resultant drop in oxygen consumption rate (OCR) of the cells. Injection of FCCP collapsed the proton gradient and allowed for uninhibited electron flow through the ETC supercomplexes. […] The reserve respiratory capacity was calculated by subtracting the basal respiratory capacity from the maximal respiratory capacity.
# HUVEC cells = assay: Seahorse mitochondrial respiration (oxygen consumption rate), HUVEC; format: cell-based; settings: pretreated 2 hours before 1 Gy 230 MeV proton
# Experimental: as §1
# NIH3T3 cells = assay: Seahorse mitochondrial respiration (oxygen consumption rate), NIH3T3; format: cell-based; settings: NIH3T3, pretreated 2 hours before 1 Gy 230 MeV proton
# Experimental: as §1
# C57B16 mice = assay: Whole body radiation protection, survival; format: in vivo
compound,measurement,setting,value
"O=C(NC(CO)CO)C1(C(=O)NC(CO)CO)C23c4c5c6c7c8c4-c4c2c2c9c%10c4C4%11c%12c-%10c%10c%13c%14c%12-c%12c(c-7c7c%15c%12C%14%12C(C(=O)NC(CO)CO)(C(=O)NC(CO)CO)C%12%14c%12c%16c%17c%18c(c%12-%15)C7%12C(C(=O)NC(CO)CO)(C(=O)NC(CO)CO)C6%12c6c-5c5c7c(c6-%18)C%176C(C(=O)NC(CO)CO)(C(=O)NC(CO)CO)C6%12c6c-7c(c-2c2c6-c6c%12c-%16c%14c-%13c6C%106C(C(=O)NC(CO)CO)(C(=O)NC(CO)CO)C926)C513)C84C%11(C(=O)NC(CO)CO)C(=O)NC(CO)CO (centres unmarked) [C60-ser, C60-serinol]",Predominant aggregate sizes,"[1]; 0.1 mg/mL, 37 ° C.",260 ± 38 nm
same,Predominant aggregate sizes,"[1]; 10 mg/mL, 4 ° C.",290 ± 73 nm
same,Predominant aggregate sizes,"[1]; 10 mg/mL, 37 ° C.",233 ± 56 nm
same,size of aggregates,[1]; dynamic equilibrium in water,100-2000 nm
same,size of conjugate monomers,[1]; dynamic equilibrium in water,~3 nm
same,diameters of individual molecules,"[1]; initially, when dissolved in water",3-4 nm
same,γH2AX foci vs control,"HepG2 cells [2]; HepG2, 100 μM 2 hours before 0.5 Gy proton radiation","trend towards reduction in total foci formed, but it was not statistically significant"
same,γH2AX foci vs control,"HepG2 cells [2]; HepG2, 100 μM 2 hours before 1 Gy proton radiation",significant decrease in the number of foci
same,γH2AX foci vs control,"HepG2 cells [2]; HepG2, 100 μM 2 hours, absence of radiation",no significant different in foci expression
same,fraction of surviving cells,"HepG2 cells [3]; HepG2, 100 μM 2 hours before irradiation",increased the fraction of surviving cells
same,dose enhancement factor (DEF) at 20% surviving fraction,"HepG2 cells [3]; HepG2, 100 μM 2 hours, 0-6 Gy 230 MeV proton",0.88±0.01
same,radiation-induced increase in respiratory capacity,N2A cells,"dampened and, in some cases, reduced to normal or slightly below normal levels"
same,radiation-induced increase in respiratory capacity,HUVEC cells,"dampened and, in some cases, reduced to normal or slightly below normal levels"
same,radiation-induced increase in respiratory capacity,NIH3T3 cells,"dampened and, in some cases, reduced to normal or slightly below normal levels"
same,protection from whole body x-ray radiation-induced death,C57B16 mice; given systemically 12 hours after radiation,protected mice from whole body x-ray radiation-induced death
same,survival over 45 day study,"C57B16 mice; per os 700 mg/kg 12 hours before 9.5 Gy whole-body x-ray, then 70 mg/kg daily for eight days",100%
same,survival over 45 day study,C57B16 mice; per os 700 mg/kg once 12 hours before 9.5 Gy whole-body x-ray,100%
